biological target: PD-1/PD-L1 (Homo sapiens (Human), UniProt Q9NZQ7); assay: PD-1/PD-L1 binding assay (HTRF)
Method in brief: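 Fc-tagged human PD-1 (25-167) and His-tagged PD-L1 (19-238), listed as […] and 10 nM final, preincubated 40 min with inhibitors in PBS pH 7.4, 0.05% Tween-20, 0.1% BSA, 1% DMSO, 25 °C. Eu anti-IgG/APC anti-His added, 60 min, 665/620 nm HTRF ratio; IC50 fitted from percent control activity.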

Sequence of PD-1/PD-L1 (Q9NZQ7 19-238): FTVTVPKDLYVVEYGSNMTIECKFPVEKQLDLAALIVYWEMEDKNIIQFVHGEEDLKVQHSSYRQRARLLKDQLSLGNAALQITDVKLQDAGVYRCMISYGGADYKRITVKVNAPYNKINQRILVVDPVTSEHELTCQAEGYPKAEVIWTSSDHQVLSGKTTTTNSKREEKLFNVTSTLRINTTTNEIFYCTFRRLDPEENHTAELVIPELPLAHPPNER

IC50, ≤ 10 nM:
CN1CCc2c(nc(C(=O)Nc3cccc(-c4cccc(NC(=O)c5nc6c(n5C)CCN(CC5CCC(C)(C(=O)O)CC5)C6)c4Cl)c3Cl)n2C)C1 (single isomer, unassigned) [Compound 82-1, 4-((2-((2,2′-dichloro-3′-(1,5-dimethyl-4,5,6,7-tetrahydro-1H-imidazo[4,5-c]pyridine-2-carboxamido)-[1,1′-biphenyl]-3-yl)carbamoyl)-1-methyl-1,4,6,7-tetrahydro-5H-imidazo[4,5-c]pyridin-5-yl)methyl)-1-methylcyclohexane-1-carboxylic acid]
Cn1c(C(=O)Nc2cccc(-c3cccc(NC(=O)c4nc5c(n4C)CCN(C[C@H]4CC[C@H](C(=O)O)CC4)C5)c3Cl)c2Cl)nc2c1CCN(CC1CC1)C2 [Example 63, trans-4-((2-(2,2′-dichloro-3′-(5-(cyclopropylmethyl)-1-methyl-4,5,6,7-tetrahydro-1H-imidazo[4,5-c]pyridine-2-carboxamido)biphenyl-3-ylcarbamoyl)-1-methyl-6,7-dihydro-1H-imidazo[4,5-c]pyridin-5(4H)-yl)methyl)cyclohexane-1-carboxylic acid]
Cc1c(NC(=O)c2nc3c(n2C)CCN(CC[C@H]2CC[C@H](C(=O)O)CC2)C3)cccc1-c1cccc(NC(=O)c2nc3c(n2C)CCN(C2CCOCC2)C3)c1Cl [Example 109, trans-4-(2-(2-((2′-chloro-2-methyl-3′-(1-methyl-5-(tetrahydro-2H-pyran-4-yl)-4,5,6,7-tetrahydro-1H-imidazo[4,5-c]pyridine-2-carboxamido)-[1,1′-biphenyl]-3-yl)carbamoyl)-1-methyl-1,4,6,7-tetrahydro-5H-imidazo[4,5-c]pyridin-5-yl)ethyl)cyclohexane-1-carboxylic acid]
Cc1c(NC(=O)c2nc3c(n2C)CCN(C2CCOCC2)C3)cccc1-c1cccc(NC(=O)c2nc3c(n2C)CCN(C[C@H]2CC[C@H](C(=O)O)CC2)C3)c1Cl [Example 123, trans-4-((2-((2-chloro-2′-methyl-3′-(1-methyl-5-(tetrahydro-2H-pyran-4-yl)-4,5,6,7-tetrahydro-1H-imidazo[4,5-c]pyridine-2-carboxamido)-[1,1′-biphenyl]-3-yl)carbamoyl)-1-methyl-1,4,6,7-tetrahydro-5H-imidazo[4,5-c]pyridin-5-yl)methyl)cyclohexane-1-carboxylic acid]
Cc1c(COc2cc(OCc3cncc(C#N)c3)c(CN3CCCC[C@H]3C(=O)O)cc2Cl)cccc1-c1cccc(NC(=O)c2nc3c(n2C)CCN(C)C3)c1Cl [Example 54, (S)-1-(5-chloro-4-((2′-chloro-3′-(1,5-dimethyl-4,5,6,7-tetrahydro-1H-imidazo[4,5-c]pyridine-2-carboxamido)-2-methyl-[1,1′-biphenyl]-3-yl)methoxy)-2-((5-cyanopyridin-3-yl)methoxy)benzyl)piperidine-2-carboxylic acid]
CC(C)N1CCc2c(nc(C(=O)Nc3cccc(-c4cccc(NC(=O)c5nc6c(n5C)CCN(CC[C@H]5CC[C@H](C(=O)O)CC5)C6)c4Cl)c3Cl)n2C)C1 [Example 88, trans-4-(2-(2-((2,2′-dichloro-3′-(5-isopropyl-1-methyl-4,5,6,7-tetrahydro-1H-imidazo[4,5-c]pyridine-2-carboxamido)-[1,1′-biphenyl]-3-yl)carbamoyl)-1-methyl-1,4,6,7-tetrahydro-5H-imidazo[4,5-c]pyridin-5-yl)ethyl)cyclohexane-1-carboxylic acid]
Cc1c(-c2nc3c(o2)CN(C(=O)CN(C)C)C3)cccc1-c1cccc(NC(=O)c2nc3c(n2C)CCN(C2CCC(C)(C(=O)O)CC2)C3)c1Cl (centres unmarked) [Compound 168, 4-(2-((2-chloro-3′-(5-(dimethylglycyl)-5,6-dihydro-4H-pyrrolo[3,4-d]oxazol-2-yl)-2′-methyl-[1,1′-biphenyl]-3-yl)carbamoyl)-1-methyl-1,4,6,7-tetrahydro-5H-imidazo[4,5-c]pyridin-5-yl)-1-methylcyclohexane-1-carboxylic acid]
C[C@@H](O)CN1CCc2c(nc(C(=O)Nc3cccc(-c4cccc(NC(=O)c5nc6c(n5C)CCN(C[C@H]5CC[C@@H](C(=O)O)CC5)C6)c4Cl)c3Cl)n2C)C1 [Example 76, cis-4-((2-((2,2′-dichloro-3′-(5-((R)-2-hydroxypropyl)-1-methyl-4,5,6,7-tetrahydro-1H-imidazo[4,5-c]pyridine-2-carboxamido)-[1,1′-biphenyl]-3-yl)carbamoyl)-1-methyl-1,4,6,7-tetrahydro-5H-imidazo[4,5-c]pyridin-5-yl)methyl)cyclohexane-1-carboxylic acid]
CC(C)N1CCc2c(nc(C(=O)Nc3cccc(-c4cccc(NC(=O)c5nc6c(n5C)CCN(CC[C@H]5CC[C@H](C(=O)O)CC5)C6)c4C#N)c3Cl)n2C)C1 [Compound 155, trans-4-(2-(2-((2′-chloro-2-cyano-3′-(5-isopropyl-1-methyl-4,5,6,7-tetrahydro-1H-imidazo[4,5-c]pyridine-2-carboxamido)-[1,1′-biphenyl]-3-yl)carbamoyl)-1-methyl-1,4,6,7-tetrahydro-5H-imidazo[4,5-c]pyridin-5-yl)ethyl)cyclohexane-1-carboxylic acid]
Cn1c(C(=O)Nc2cccc(-c3cccc(NC(=O)c4nc5c(n4C)CCN(C4CCC(C(=O)O)CC4)C5)c3Cl)c2Cl)nc2c1CCN(C1CCOCC1)C2 (centres unmarked) [Example 97, 4-(2-((2,2′-dichloro-3′-(1-methyl-5-(tetrahydro-2H-pyran-4-yl)-4,5,6,7-tetrahydro-1H-imidazo[4,5-c]pyridine-2-carboxamido)-[1,1′-biphenyl]-3-yl)carbamoyl)-1-methyl-1,4,6,7-tetrahydro-5H-imidazo[4,5-c]pyridin-5-yl)cyclohexane-1-carboxylic acid]
CN1CCc2c(nc(C(=O)Nc3cccc(-c4cccc(NC(=O)c5nc6c(n5C)CCN(CC57CCC(C(=O)O)(CC5)C7)C6)c4Cl)c3Cl)n2C)C1 [Example 84, 4-((2-((2,2′-dichloro-3′-(1,5-dimethyl-4,5,6,7-tetrahydro-1H-imidazo[4,5-c]pyridine-2-carboxamido)-[1,1′-biphenyl]-3-yl)carbamoyl)-1-methyl-1,4,6,7-tetrahydro-5H-imidazo[4,5-c]pyridin-5-yl)methyl)bicyclo[2.2.1]heptane-1-carboxylic acid]
C[C@@H](O)CN1CCc2c(nc(C(=O)Nc3cccc(-c4cccc(NC(=O)c5nc6c(n5C)CCN(CC[C@H]5CC[C@H](C(=O)O)CC5)C6)c4Cl)c3Cl)n2C)C1 [Example 95, trans-4-(2-(2-((2,2′-dichloro-3′-(5-((R)-2-hydroxypropyl)-1-methyl-4,5,6,7-tetrahydro-1H-imidazo[4,5-c]pyridine-2-carboxamido)-[1,1′-biphenyl]-3-yl)carbamoyl)-1-methyl-1,4,6,7-tetrahydro-5H-imidazo[4,5-c]pyridin-5-yl)ethyl)cyclohexane-1-carboxylic acid]
Cc1c(-c2nc3c(o2)CN(C(=O)CN[C@H]2C[C@@H](O)C2)C3)cccc1-c1cccc(NC(=O)c2nc3c(n2C)CCN(C)C3)c1Cl [Compound 165, N-(2-chloro-3′-(5-((cis-3-hydroxycyclobutyl)glycyl)-5,6-dihydro-4H-pyrrolo[3,4-d]oxazol-2-yl)-2′-methyl-[1,1′-biphenyl]-3-yl)-1,5-dimethyl-4,5,6,7-tetrahydro-1H-imidazo[4,5-c]pyridine-2-carboxamide]
Cc1c(NC(=O)c2nc3c(n2C)CCN(CC24CCC(C(=O)O)(CC2)CC4)C3)cccc1-c1cccc(NC(=O)c2nc3c(n2C)CCN(C)C3)c1Cl [Example 103, 4-((2-(2′-chloro-3′-(1,5-dimethyl-4,5,6,7-tetrahydro-1H-imidazo[4,5-c]pyridine-2-carboxamido)-2-methylbiphenyl-3-ylcarbamoyl)-1-methyl-6,7-dihydro-1H-imidazo[4,5-c]pyridin-5(4H)-yl)methyl)bicyclo[2.2.2]octane-1-carboxylic acid]
Cc1c(NC(=O)c2nc3c(n2C)CCN(C[C@H]2CC[C@H](C(=O)O)CC2)C3)cccc1-c1cccc(NC(=O)c2nc3c(n2C)CCN(C2CCOCC2)C3)c1Cl [Example 110, trans-4-((2-((2′-chloro-2-methyl-3′-(1-methyl-5-(tetrahydro-2H-pyran-4-yl)-4,5,6,7-tetrahydro-1H-imidazo[4,5-c]pyridine-2-carboxamido)-[1,1′-biphenyl]-3-yl)carbamoyl)-1-methyl-1,4,6,7-tetrahydro-5H-imidazo[4,5-c]pyridin-5-yl)methyl)cyclohexane-1-carboxylic acid]
CCN1CCc2c(nc(C(=O)Nc3cccc(-c4cccc(NC(=O)c5nc6c(n5C)CCN(C[C@H]5CC[C@H](C(=O)O)CC5)C6)c4C#N)c3Cl)n2C)C1 [Compound 156, trans-4-((2-((2′-chloro-2-cyano-3′-(5-ethyl-1-methyl-4,5,6,7-tetrahydro-1H-imidazo[4,5-c]pyridine-2-carboxamido)-[1,1′-biphenyl]-3-yl)carbamoyl)-1-methyl-1,4,6,7-tetrahydro-5H-imidazo[4,5-c]pyridin-5-yl)methyl)cyclohexane-1-carboxylic acid]
Cc1c(NC(=O)c2nc3c(n2C)CCN(CCO)C3)cccc1-c1cccc(NC(=O)c2nc3c(n2C)CCN(CC[C@H]2CC[C@H](C(=O)O)CC2)C3)c1Cl [Example 132, trans-4-(2-(2-((2-chloro-3′-(5-(2-hydroxyethyl)-1-methyl-4,5,6,7-tetrahydro-1H-imidazo[4,5-c]pyridine-2-carboxamido)-2′-methyl-[1,1′-biphenyl]-3-yl)carbamoyl)-1-methyl-1,4,6,7-tetrahydro-5H-imidazo[4,5-c]pyridin-5-yl)ethyl)cyclohexane-1-carboxylic acid]

Reference: patent US10806785B2, “Immunomodulator compounds and methods of use” (Incyte Corporation, priority 2016, dated 2020)
